# pKi: −log10 of the molar value. Values joined by “and” are separate entries in the source; they are usually repeats but may differ in a detail not shown here. Equal entries are not always repeated.
# How the values were obtained:
# A549 = settings: African green monkey
# CHIKV nsP2 protease = CHIKV nsP2 protease (Chikungunya virus, UniProt Q8JUX6); type: biochemical
# [1] = SD, rat
# WEEV nsP2 protease = WEEV nsP2 protease (Western equine encephalitis virus, UniProt P13896); type: biochemical
# VEEV nsP2 protease = VEEV nsP2 protease (Venezuelan equine encephalitis virus, UniProt P27282); assay: biochemical
# Chain of VEEV nsP2 protease (P27282 1003-1322 limits assumed): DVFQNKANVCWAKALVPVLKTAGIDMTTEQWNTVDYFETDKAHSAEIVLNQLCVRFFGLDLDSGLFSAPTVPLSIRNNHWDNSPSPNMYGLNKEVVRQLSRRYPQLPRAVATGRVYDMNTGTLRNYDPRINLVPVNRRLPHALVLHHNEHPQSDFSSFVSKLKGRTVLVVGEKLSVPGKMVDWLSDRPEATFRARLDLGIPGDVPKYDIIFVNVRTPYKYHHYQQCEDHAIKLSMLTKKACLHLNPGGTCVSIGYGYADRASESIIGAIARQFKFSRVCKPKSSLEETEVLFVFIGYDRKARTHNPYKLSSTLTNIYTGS
# Chain of WEEV nsP2 protease (P13896 1001-1320 limits assumed): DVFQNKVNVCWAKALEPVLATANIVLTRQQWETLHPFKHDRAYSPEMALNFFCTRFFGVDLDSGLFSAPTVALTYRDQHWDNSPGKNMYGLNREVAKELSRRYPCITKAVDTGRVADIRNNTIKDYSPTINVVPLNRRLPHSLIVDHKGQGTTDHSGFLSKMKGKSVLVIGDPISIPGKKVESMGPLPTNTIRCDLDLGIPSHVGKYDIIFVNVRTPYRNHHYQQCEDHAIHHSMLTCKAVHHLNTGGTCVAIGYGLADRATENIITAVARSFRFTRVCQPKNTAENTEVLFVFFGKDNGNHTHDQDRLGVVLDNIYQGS
# Chain of CHIKV nsP2 protease (Q8JUX6 1004-1327 limits assumed): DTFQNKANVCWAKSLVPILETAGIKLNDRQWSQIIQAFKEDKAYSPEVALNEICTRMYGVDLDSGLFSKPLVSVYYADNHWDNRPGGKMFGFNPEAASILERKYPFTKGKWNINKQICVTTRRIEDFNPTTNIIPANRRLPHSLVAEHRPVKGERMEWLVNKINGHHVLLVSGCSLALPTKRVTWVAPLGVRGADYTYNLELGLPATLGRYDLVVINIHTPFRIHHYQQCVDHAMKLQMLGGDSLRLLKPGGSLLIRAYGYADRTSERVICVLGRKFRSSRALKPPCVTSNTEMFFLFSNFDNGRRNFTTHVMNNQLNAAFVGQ
structure (smiles),measurement,setting,value
CCCNC(=O)[C@H]1O[C@@H]1C(=O)N[C@H](C(=O)N1CCC[C@H]1C(=O)O)[C@@H](C)CC [CA074],CC50,A549,> 100 µM
same,inhibition of CHIKV nsP2 protease,CHIKV nsP2 protease,inhibited
same,Microsomal Stability t1/2,[1],>30 min
same,Rat_SD/Microsomes t1/2,[1],>30 m
same,PAMPA,,<1e-06 cm/s
same,Permeability (PAMPA_Pion_Lipid),PAMPA,<1e-06 cm/s
same,inhibition of WEEV nsP2 protease,WEEV nsP2 protease,inhibited
same,enhancement of inhibitor binding by Mg^2+ and Mn^2+,VEEV nsP2 protease,3 to 6 fold
same,k2/Ki,"VEEV nsP2 protease; 50 mm hepes, pH 7",0.0002 ± 0.0002 µM⁻¹ min⁻¹
same,pKi,VEEV nsP2 protease; Ki,2.92 and 3.39 and 3.68 and 2.70
same,kinact/KI,"VEEV nsP2 protease; pH 7, read-out: k2/Ki",3.33 M⁻¹ s⁻¹

# Reference: publication PMC10385868 (Viruses, 2023)
